# Data published in PubChem BioAssay (NCI).
#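 Dose response: 5 concentrations. Exposure: 48 h. Format: 96-well plates. Endpoint: linear interpolation; highest concentration if not reached. Here, GI50 denotes the concentration required for 50% inhibition of growth. Definition used: TGI = concentration required for complete inhibition of growth.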
# Key:
# Experiment in all cases: NCI anticancer screen, dose series, 48 h
# A549 NSCLC = tested on: A549 NSCLC
# T-47D breast = tested on: T-47D breast
# 786-0 renal = tested on: 786-0 renal
# UO-31 renal = tested on: UO-31 renal
# MDA-MB-231 breast = tested on: MDA-MB-231 breast
# NCI-H460 lung = tested on: NCI-H460 lung
# COLO 205 colon = tested on: COLO 205 colon
# LOX IMVI melanoma = tested on: LOX IMVI melanoma
# SN12C renal = tested on: SN12C renal
# HCT-116 colon = tested on: HCT-116 colon
# MDA-N = tested on: MDA-N
# SW-620 colon = tested on: SW-620 colon
# RPMI-8226 leukemia = tested on: RPMI-8226 leukemia
# UACC-62 melanoma = tested on: UACC-62 melanoma
# SK-OV-3 ovarian = tested on: SK-OV-3 ovarian
# HCT-15 colon = tested on: HCT-15 colon
# SNB-75 CNS = tested on: SNB-75 CNS
# ACHN renal = tested on: ACHN renal
# NCI/ADR-RES ovarian = tested on: NCI/ADR-RES ovarian
# NCI-H522 lung = tested on: NCI-H522 lung
# OVCAR-8 ovarian = tested on: OVCAR-8 ovarian
# MCF7 breast = tested on: MCF7 breast
# HL-60(TB) leukemia = tested on: HL-60(TB) leukemia
# EKVX NSCLC = tested on: EKVX NSCLC
# KM12 colon = tested on: KM12 colon
# SNB-19 CNS = tested on: SNB-19 CNS
# CAKI-1 renal = tested on: CAKI-1 renal
# IGROV1 ovarian = tested on: IGROV1 ovarian
# HS 578T breast = tested on: HS 578T breast
# TK-10 renal = tested on: TK-10 renal
# SK-MEL-2 melanoma = tested on: SK-MEL-2 melanoma
# MDA-MB-435 = tested on: MDA-MB-435
# HOP-62 NSCLC = tested on: HOP-62 NSCLC
# HT29 colon = tested on: HT29 colon
# M14 melanoma = tested on: M14 melanoma
# MOLT-4 leukemia = tested on: MOLT-4 leukemia
# DU-145 prostate = tested on: DU-145 prostate
# NCI-H226 lung = tested on: NCI-H226 lung
# OVCAR-5 ovarian = tested on: OVCAR-5 ovarian
# SF-268 CNS = tested on: SF-268 CNS
# NCI-H23 lung = tested on: NCI-H23 lung
# UACC-257 melanoma = tested on: UACC-257 melanoma
# CCRF-CEM leukemia = tested on: CCRF-CEM leukemia
# HOP-92 NSCLC = tested on: HOP-92 NSCLC
# SF-539 CNS = tested on: SF-539 CNS
# BT-549 breast = tested on: BT-549 breast
# SK-MEL-5 melanoma = tested on: SK-MEL-5 melanoma
# A498 renal = tested on: A498 renal
# PC-3 prostate = tested on: PC-3 prostate
# OVCAR-4 ovarian = tested on: OVCAR-4 ovarian
# HCC-2998 colon = tested on: HCC-2998 colon
# U251 CNS = tested on: U251 CNS
# RXF 393 renal = tested on: RXF 393 renal
# SK-MEL-28 melanoma = tested on: SK-MEL-28 melanoma
# OVCAR-3 ovarian = tested on: OVCAR-3 ovarian
# SF-295 CNS = tested on: SF-295 CNS
# MALME-3M melanoma = tested on: MALME-3M melanoma
# K-562 leukemia = tested on: K-562 leukemia
# SR leukemia = tested on: SR leukemia
compound,measurement,setting,value
N=c1c2c3n(c4c(=O)n(-c5ccccc5)c(=S)n(c(=O)n1-c1ccccc1)c24)CCCCC3,TGI,A549 NSCLC,> 100 µM
same,TGI,T-47D breast,> 100 µM
same,TGI,786-0 renal,> 100 µM
same,TGI,UO-31 renal,> 100 µM
same,TGI,MDA-MB-231 breast,> 100 µM
same,TGI,NCI-H460 lung,> 100 µM
same,TGI,COLO 205 colon,> 100 µM
same,TGI,LOX IMVI melanoma,> 100 µM
same,TGI,SN12C renal,> 100 µM
same,TGI,HCT-116 colon,> 100 µM
same,TGI,MDA-N,> 100 µM
same,TGI,SW-620 colon,> 100 µM
same,TGI,RPMI-8226 leukemia,> 100 µM
same,TGI,UACC-62 melanoma,> 100 µM
same,TGI,SK-OV-3 ovarian,> 100 µM
same,TGI,HCT-15 colon,> 100 µM
same,TGI,SNB-75 CNS,> 100 µM
same,TGI,ACHN renal,> 100 µM
same,TGI,NCI/ADR-RES ovarian,> 100 µM
same,TGI,NCI-H522 lung,> 100 µM
same,TGI,OVCAR-8 ovarian,> 100 µM
same,TGI,MCF7 breast,> 100 µM
same,TGI,HL-60(TB) leukemia,> 100 µM
same,TGI,EKVX NSCLC,> 100 µM
same,TGI,KM12 colon,> 100 µM
same,TGI,SNB-19 CNS,> 100 µM
same,TGI,CAKI-1 renal,> 100 µM
same,TGI,IGROV1 ovarian,> 100 µM
same,TGI,HS 578T breast,> 100 µM
same,TGI,TK-10 renal,> 100 µM
same,TGI,SK-MEL-2 melanoma,> 100 µM
same,TGI,MDA-MB-435,> 100 µM
same,TGI,HOP-62 NSCLC,> 100 µM
same,TGI,HT29 colon,> 100 µM
same,TGI,M14 melanoma,> 100 µM
same,TGI,MOLT-4 leukemia,> 71.6 µM
same,TGI,DU-145 prostate,> 100 µM
same,TGI,NCI-H226 lung,> 100 µM
same,TGI,OVCAR-5 ovarian,> 100 µM
same,TGI,SF-268 CNS,> 100 µM
same,TGI,NCI-H23 lung,> 100 µM
same,TGI,UACC-257 melanoma,> 100 µM
same,TGI,CCRF-CEM leukemia,> 100 µM
same,TGI,HOP-92 NSCLC,> 100 µM
same,TGI,SF-539 CNS,> 100 µM
same,TGI,BT-549 breast,> 100 µM
same,TGI,SK-MEL-5 melanoma,> 100 µM
same,TGI,A498 renal,> 100 µM
same,TGI,PC-3 prostate,> 100 µM
same,TGI,OVCAR-4 ovarian,> 100 µM
same,TGI,HCC-2998 colon,> 100 µM
same,TGI,U251 CNS,> 100 µM
same,TGI,RXF 393 renal,> 100 µM
same,TGI,SK-MEL-28 melanoma,> 100 µM
same,TGI,OVCAR-3 ovarian,> 100 µM
same,TGI,SF-295 CNS,> 100 µM
same,TGI,MALME-3M melanoma,> 100 µM
Cn1c(N2CCCC2)c(C=O)c(=O)n(C)c1=O,TGI,A549 NSCLC,> 100 µM
same,TGI,T-47D breast,> 100 µM
same,TGI,786-0 renal,> 100 µM
same,TGI,UO-31 renal,> 100 µM
same,TGI,K-562 leukemia,> 100 µM
same,TGI,MDA-MB-231 breast,> 100 µM
same,TGI,NCI-H460 lung,> 100 µM
same,TGI,COLO 205 colon,> 100 µM
same,TGI,LOX IMVI melanoma,> 100 µM
same,TGI,SN12C renal,> 100 µM
same,TGI,HCT-116 colon,> 100 µM
same,TGI,MDA-N,> 100 µM
same,TGI,SW-620 colon,> 100 µM
same,TGI,RPMI-8226 leukemia,> 100 µM
same,TGI,UACC-62 melanoma,> 100 µM
same,TGI,SK-OV-3 ovarian,> 100 µM
same,TGI,HCT-15 colon,> 100 µM
same,TGI,SNB-75 CNS,93 µM
same,TGI,ACHN renal,> 100 µM
same,TGI,NCI/ADR-RES ovarian,> 100 µM
same,TGI,NCI-H522 lung,> 100 µM
same,TGI,OVCAR-8 ovarian,> 100 µM
same,TGI,MCF7 breast,> 100 µM
same,TGI,HL-60(TB) leukemia,> 100 µM
same,TGI,EKVX NSCLC,> 100 µM
same,TGI,KM12 colon,> 100 µM
same,TGI,SNB-19 CNS,> 100 µM
same,TGI,CAKI-1 renal,> 100 µM
same,TGI,IGROV1 ovarian,> 100 µM
same,TGI,HS 578T breast,> 100 µM
same,TGI,TK-10 renal,> 100 µM
same,TGI,SK-MEL-2 melanoma,> 100 µM
same,TGI,MDA-MB-435,> 100 µM
same,TGI,HOP-62 NSCLC,> 100 µM
same,TGI,HT29 colon,> 100 µM
same,TGI,M14 melanoma,> 100 µM
same,TGI,MOLT-4 leukemia,> 100 µM
same,TGI,DU-145 prostate,> 100 µM
same,TGI,NCI-H226 lung,> 100 µM
same,TGI,OVCAR-5 ovarian,> 100 µM
same,TGI,SF-268 CNS,> 100 µM
same,TGI,NCI-H23 lung,> 100 µM
same,TGI,UACC-257 melanoma,> 100 µM
same,TGI,CCRF-CEM leukemia,> 100 µM
same,TGI,HOP-92 NSCLC,> 100 µM
same,TGI,SF-539 CNS,> 100 µM
same,TGI,BT-549 breast,> 100 µM
same,TGI,SK-MEL-5 melanoma,> 100 µM
same,TGI,A498 renal,> 100 µM
same,TGI,PC-3 prostate,> 100 µM
same,TGI,OVCAR-4 ovarian,> 100 µM
same,TGI,HCC-2998 colon,> 100 µM
same,TGI,U251 CNS,> 100 µM
same,TGI,RXF 393 renal,> 100 µM
same,TGI,SK-MEL-28 melanoma,> 100 µM
same,TGI,OVCAR-3 ovarian,> 100 µM
same,TGI,SF-295 CNS,> 100 µM
same,TGI,MALME-3M melanoma,> 100 µM
Cc1cc2c(cc1O)CC[C@@H]1[C@@H]2CC[C@]2(C)[C@@H](O)CC[C@@H]12,TGI,A549 NSCLC,> 100 µM
same,TGI,T-47D breast,38.9 µM
same,TGI,786-0 renal,30.9 µM
same,TGI,UO-31 renal,37.6 µM
same,TGI,K-562 leukemia,13.2 µM
same,TGI,MDA-MB-231 breast,21.8 µM
same,TGI,NCI-H460 lung,29.8 µM
same,TGI,COLO 205 colon,32.5 µM
same,TGI,LOX IMVI melanoma,27 µM
same,TGI,SN12C renal,31.2 µM
same,GI50,HCT-116 colon,3.63 µM
same,TGI,HCT-116 colon,13.4 µM
same,TGI,MDA-N,4.39 µM
same,TGI,SW-620 colon,37.5 µM
same,TGI,RPMI-8226 leukemia,19.2 µM
same,GI50,UACC-62 melanoma,5.39 µM
same,TGI,UACC-62 melanoma,21 µM
same,TGI,SK-OV-3 ovarian,34.1 µM
same,TGI,HCT-15 colon,16.4 µM
same,TGI,SNB-75 CNS,23.9 µM
same,TGI,ACHN renal,51.9 µM
same,TGI,SR leukemia,5.5 µM
same,TGI,NCI/ADR-RES ovarian,27.2 µM
same,TGI,NCI-H522 lung,23.4 µM
same,TGI,OVCAR-8 ovarian,51.7 µM
same,TGI,MCF7 breast,26.1 µM
same,TGI,HL-60(TB) leukemia,5.54 µM
same,TGI,KM12 colon,15.7 µM
same,TGI,SNB-19 CNS,33.1 µM
same,TGI,CAKI-1 renal,59.6 µM
same,TGI,IGROV1 ovarian,45.4 µM
same,TGI,HS 578T breast,7.17 µM
same,TGI,TK-10 renal,91.5 µM
same,TGI,SK-MEL-2 melanoma,19.8 µM
same,GI50,MDA-MB-435,1800 nM
same,TGI,MDA-MB-435,3.65 µM
same,GI50,HOP-62 NSCLC,10.9 µM
same,TGI,HOP-62 NSCLC,24.9 µM
same,TGI,HT29 colon,31.6 µM
same,TGI,M14 melanoma,21.4 µM
same,TGI,MOLT-4 leukemia,17.7 µM
same,GI50,DU-145 prostate,16 µM
same,TGI,DU-145 prostate,36.1 µM
same,TGI,OVCAR-5 ovarian,71.9 µM
same,TGI,SF-268 CNS,46.8 µM
same,TGI,NCI-H23 lung,35 µM
same,TGI,UACC-257 melanoma,42.5 µM
same,TGI,CCRF-CEM leukemia,27.4 µM
same,TGI,HOP-92 NSCLC,30.4 µM
same,GI50,SF-539 CNS,7.46 µM
same,TGI,SF-539 CNS,19.8 µM
same,TGI,BT-549 breast,20.1 µM
same,TGI,SK-MEL-5 melanoma,16.1 µM
same,TGI,A498 renal,37.9 µM
same,TGI,PC-3 prostate,37.7 µM
same,TGI,OVCAR-4 ovarian,29.2 µM
same,TGI,HCC-2998 colon,24.1 µM
same,TGI,U251 CNS,18.2 µM
same,TGI,SK-MEL-28 melanoma,27.3 µM
same,GI50,OVCAR-3 ovarian,9.14 µM
same,TGI,OVCAR-3 ovarian,22.1 µM
same,TGI,SF-295 CNS,20.3 µM
same,TGI,MALME-3M melanoma,19.4 µM
